{
  "source": "the supplement of paper PMC10307832",
  "test_in_all_cases": "relative viability (nuclei count vs DMSO), 5 days (fraction); higher = more cells survive",
  "key": {"BAM7 + Vorinostat": {"compound": "CCOC1=CC=CC=C1N=NC2=C(NN(C2=O)C3=NC(=CS3)C4=CC=CC=C4)C [BAM7] + O=C(CCCCCCC(=O)Nc1ccccc1)NO [Vorinostat] (partner 1 µM)", "how_it_was_run": "(§1)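 Cells from lung cancer lines were seeded into 1536-well plates and, one day later, dosed by pin tool. Treatments were either a single drug or a fixed dose of an anchor drug with five library-drug doses (not always all listed) in √10 steps. After 5 days, nuclei were stained in a one-step fixation (final 0.05% Triton X-100, 1% formaldehyde, 1 ug/ml Hoechst) and counted on 4× images, and relative viability is the treated-to-vehicle nuclei ratio, as the median of duplicate plates.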"}, "BAM7 + Crizotinib": {"compound": "CCOC1=CC=CC=C1N=NC2=C(NN(C2=O)C3=NC(=CS3)C4=CC=CC=C4)C [BAM7] + C[C@@H](Oc1cc(-c2cnn(C3CCNCC3)c2)cnc1N)c1c(Cl)ccc(F)c1Cl [Crizotinib] (partner 1 µM)", "how_it_was_run": "as §1"}, "BAM7 + Bortezomib": {"compound": "CCOC1=CC=CC=C1N=NC2=C(NN(C2=O)C3=NC(=CS3)C4=CC=CC=C4)C [BAM7] + CC(C)C[C@H](NC(=O)[C@H](Cc1ccccc1)NC(=O)c1cnccn1)B(O)O [Bortezomib] (partner 0.002 µM)", "how_it_was_run": "as §1"}, "BAM7 + Luminespib": {"compound": "CCOC1=CC=CC=C1N=NC2=C(NN(C2=O)C3=NC(=CS3)C4=CC=CC=C4)C [BAM7] + CCNC(=O)c1noc(-c2cc(C(C)C)c(O)cc2O)c1-c1ccc(CN2CCOCC2)cc1 [Luminespib] (partner 0.01 µM)", "how_it_was_run": "as §1"}},
  "data": [
    {"cell line": "UMC-11", "values": [
      {"measurement": "relative viability", "setting": "BAM7 + Vorinostat; first compound 0.5 µM", "value": 0.37},
      {"measurement": "relative viability", "setting": "BAM7 + Vorinostat; first compound 5 µM", "value": 0.478},
      {"measurement": "relative viability", "setting": "BAM7 + Vorinostat; first compound 15.81 µM", "value": 0.469},
      {"measurement": "relative viability", "setting": "BAM7 + Vorinostat; first compound 50 µM", "value": 0.362},
      {"measurement": "relative viability", "setting": "BAM7 + Crizotinib; first compound 0.5 µM", "value": 0.661},
      {"measurement": "relative viability", "setting": "BAM7 + Crizotinib; first compound 5 µM", "value": 0.786},
      {"measurement": "relative viability", "setting": "BAM7 + Crizotinib; first compound 15.81 µM", "value": 0.624},
      {"measurement": "relative viability", "setting": "BAM7 + Crizotinib; first compound 50 µM", "value": 0.636},
      {"measurement": "relative viability", "setting": "BAM7 + Bortezomib; first compound 0.5 µM", "value": 0.78},
      {"measurement": "relative viability", "setting": "BAM7 + Bortezomib; first compound 5 µM", "value": 0.89},
      {"measurement": "relative viability", "setting": "BAM7 + Bortezomib; first compound 15.81 µM", "value": 0.67},
      {"measurement": "relative viability", "setting": "BAM7 + Bortezomib; first compound 50 µM", "value": 0.905},
      {"measurement": "relative viability", "setting": "BAM7 + Luminespib; first compound 0.5 µM", "value": 1.07},
      {"measurement": "relative viability", "setting": "BAM7 + Luminespib; first compound 5 µM", "value": 1.11},
      {"measurement": "relative viability", "setting": "BAM7 + Luminespib; first compound 15.81 µM", "value": 1.1},
      {"measurement": "relative viability", "setting": "BAM7 + Luminespib; first compound 50 µM", "value": 0.991}
    ]}
  ]
}
